The text below walks through data of patent US9422274B2, “Oxazolidinone derivatives and composition for preventing or treating hepatitis C containing the same” (KOREA INSTITUTE OF SCIENCE AND TECHNOLOGY, priority 2013, dated 2016).

Experiment [1] relates to Hepatitis C virus. In words: Anti-viral activity test (HCVcc, Type 2a), JFH 5a-Rluc luciferase in Huh7.5.1 cell line. It counts as cell-based, Hepatitis C virus (HCVcc.
The subject of experiment [2] is Hepatitis C virus. Described as above. The format is cell-based. The procedure: The inhibitory effect of the oxazolidinone compounds on HCV replicon and NS5A were HCV was tested by the method disclosed in KR-A 10-2010-0007937 or US-A 2010/0215696.
The cell lines containing replicon were prepared by preparing JFH 5a-Rluc (plasmid expressing Renilla luciferase reporter protein) RNA according to the method disclosed in the documents, introducing the JFH 5a-Rluc RNA into host cell lines (Huh7.5.1 cell line) by electroporation and infecting the host cell lines (Zhnog et al., Proc. Natl. Acad. Sci. USA, 102, 9294-9299). After the infected cell lines were cultured with or without the treatment of the oxazolidinone compound, the luciferase activity was detected to obtain the inhibitory effect of […] replicon replication. EC50) of the compound was determined by performing the test at various concentrations of the compound.
The compounds Example 1 to 17 were tested for anti-viral activity on Hepatitis C virus, according to the method of KR10-2010-0007937 (published on Jan. 22, 2010) or US2010/0215696 (published on Aug. 26, 2010).
The cell lines containing replicon were prepared by preparing JFH 5a-Rluc (plasmid expressing Renilla luciferase reporter protein) RNA according to the method disclosed in the documents, introducing the JFH 5a-Rluc RNA into host cell lines (Huh7.5.1 cell line) by electroporation and infecting the host cell lines (Zhnog et al., Proc. Natl. Acad. Sci. USA, 102, 9294-9299). After the infected cell lines were cultured with or without the treatment of 1 mM of the oxazolidinone compounds of Examples 1 to 17, the host cell lines were obtained on 1, 2 and 3 days after treatment, and the luciferase activity produced from the host cells was measured.
The luciferase activity of negative control which was not treated with the oxazolidinone compound is set to 100%. At various amounts of the oxazolidinone compounds, the luciferase activities were calculated based on the negative control to obtain the inhibition rate of HCV (%). The positive control was Interferon (INF)(Sigma, SRP4595).

`COC(=O)N[C@H](C(=O)NC[C@H]1CN(c2ccc(-c3ccc(-c4cnc([C@@H]5CCCN5C(=O)[C@@H](NC(=O)OC)C(C)C)[nH]4)cc3)c(F)c2)C(=O)O1)C(C)C` [Example 15, Methyl ((S)-1-((((S)-3-(2-fluoro-4′-(2-((S)-1-((methoxycarbonyl)-L-valyl)pyrrolidin-2-yl)-1H-imidazol-5-yl)-[1,1′-biphenyl]-4-yl)-2-oxooxazolidin-5-yl)methyl)amino)-3-methyl-1-oxobutan-2-yl)carbamate]: the inhibition (commonly the percentage by which the read-out fell short of the control) at 0.001 µM with Hepatitis C virus [1] (Hepatitis C virus, Huh-7.5.1, read-out: inhibition rate) came to 44.3%. In addition, the “remnant HCV amount” value in the experiment on Hepatitis C virus [1] (treated at a concentration of 1 nM) was found to be 55.7%. For the same compound, the inhibition in the experiment with Hepatitis C virus [2] (Huh-7.5.1, luciferase activity, negative control = 100%, Huh7.5.1 cells infected with JFH 5a-Rluc, read-out: HCV inhibition rate %) was 99.8%. The EC50 in the experiment on Hepatitis C virus [2] (Huh-7.5.1, read-out: EC50 (concentration of compound to inhibit the 50% of viral growth)) came out at 1 nM.
